Measurements taken from patent US6962923B2, “Pyrazole compositions” (Pfizer Inc., priority 1999, dated 2005).

Experiments:
[1] = in man; cited from earlier work
[2] = hypertensive patients; cited from earlier work
[3] = test system: neointimal formation; conditions: cited from earlier work

Question: With `CCCC[C@@H](NC(=O)[C@@H](Cc1cn(C(=O)OC)c2ccccc12)NC(=O)[C@H](CC(C)(C)C)NC(=O)N1[C@H](C)CCC[C@@H]1C)C(=O)O` [BQ-788] as the molecule, how does the peripheral resistance [1] read?
Answer: The peripheral resistance was “increase peripheral resistance”.

Question: For `COc1ccccc1Oc1c(NS(=O)(=O)c2ccc(C(C)(C)C)cc2)nc(-c2ncccn2)nc1OCCO` [Bosentan], which blood pressure [2] is on record?
Answer: The blood pressure was “decreased blood pressure”.

Question: For `COc1ccccc1Oc1c(OC)nn(C)c1NS(=O)(=O)c1ccc(C(C)(C)C)cc1` [Example 107, 4-(tert-Butyl)-N-[3-methoxy-4-(2-methoxyphenoxy)-1-methyl-1H-pyrazol-5-yl]benzenesulfonamide], which melting point is on record?
Answer: Its melting point is 187.6 °C.

Question: For `CCCOc1ccc2c(c1)[C@@H](c1ccc(OC)cc1OCC(=O)O)[C@H](C(=O)O)[C@H]2c1ccc2c(c1)OCO2` [SB-209670], which “reduction in neointimal formation relative to control animals” value [3] is on record?
Answer: The value was 50%.
